Experimental data taken from patent US20050124021A1 (priority 2000, published 2005).
Entries after “also recorded” stand apart in the source; their conditions may differ.

Experiments:
[1] = molecular target: recombinant MshB (Rv1170) (Mycobacterium tuberculosis, UniProt P9WJN3); type: biochemical, M. tuberculosis
[2] = test system: M. smegmatis mutant 49; type: cell-based
[3] = molecular target: T1, M. tuberculosis MshB (Rv1170) (Mycobacterium tuberculosis, UniProt P9WJN3); type: biochemical; settings: for Deacetylase Specific Activity: pH 7.4
[4] = test system: M. smegmatis strain 49; settings: read-out: H2O2 IC50; cited from earlier work
[5] = test system: M. smegmatis strain 49::H37Rv A18; settings: read-out: H2O2 IC50; cited from earlier work
[6] = test system: M. smegmatis strain TN3
[7] = test system: M. smegmatis strain 49
[8] = test system: M. smegmatis strain I64
[9] = test system: M. smegmatis mc^2155; settings: read-out: H2O2 IC50
[10] = molecular target: T2, His-tagged MshB (Mycobacterium tuberculosis, UniProt P9WJN3); type: biochemical, M. tuberculosis
[11] = molecular target: T2, His-tagged MshB; type: biochemical, M. tuberculosis; remark: listed apart in the source
[12] = molecular target: T1, M. tuberculosis MshB (Rv1170); type: biochemical
[13] = test system: M. smegmatis chemical mutant 164; type: cell-based
[14] = test system: M. smegmatis mutant TN3; type: cell-based
[15] = test system: M. smegmatis mc^2155; type: cell-based

T1 sequence (P9WJN3 whole entry, looked up): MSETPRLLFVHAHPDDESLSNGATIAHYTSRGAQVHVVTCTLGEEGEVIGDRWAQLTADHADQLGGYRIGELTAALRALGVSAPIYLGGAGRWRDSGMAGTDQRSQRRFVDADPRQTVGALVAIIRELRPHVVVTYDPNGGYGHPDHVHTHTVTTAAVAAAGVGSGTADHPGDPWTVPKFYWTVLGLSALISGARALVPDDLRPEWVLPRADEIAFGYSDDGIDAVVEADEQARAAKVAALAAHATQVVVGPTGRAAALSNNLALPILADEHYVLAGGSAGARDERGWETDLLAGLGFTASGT
T2 sequence (P9WJN3 whole entry, looked up): as above
Chain of recombinant MshB (Rv1170) (P9WJN3 whole entry, looked up): as above

Compound: c1cnc2c(c1)ccc1cccnc12 [1,10-phenanthroline]
- Inhibition of the deacetylase reaction [1]: substantially inhibited; also recorded: completely inhibited

Compound: CC(=O)N[C@H]1C(O)O[C@H](CO)[C@@H](O)[C@@H]1O (stereo partly shown) [GlcNAc, N-acetylglucosamine]
- MSH found in cells [2]: No significant MSH
- Fold less active than GlcNAc-Ins as deacetylase substrate [3]: 44 fold
- Relative Rate (deacetylase reaction) [3]: 0.023
- Deacetylase Specific Activity [3]: 1.6 ± 1 nmol/min/mg

Compound: OO [H2O2, hydrogen peroxide]
- IC50 [4]: 1 mM
- IC50 [5]: 1.8 mM
- Fold more sensitive to H2O2 than the parent strain [6]: > 20 fold
- IC50 ([6]; read-out: H2O2 IC50): 0.5 mM
- Fold more sensitive to H2O2 than the parent strain [7]: 12 fold
- Sensitivity to peroxide versus the parent strain [8]: three-fold more sensitive
- IC50 ([8]; read-out: H2O2 IC50): 3.5 mM
- IC50 [9]: 12 mM

Compound: CC(=O)N[C@@H](CS)C(=O)N[C@H]1[C@@H](OC2[C@H](O)[C@H](O)C(O)[C@H](O)[C@H]2O)O[C@H](CO)[C@@H](O)[C@@H]1O (stereo partly drawn) [MSH, 1-D-myo-inosityl-2-(N-acetylcysteinyl)amido-2-deoxy-α-D-glucopyranoside]
- Inhibition of the deacetylase activity [10]: effective inhibitor
- Relative Rate (deacetylase reaction) [3]: <0.00036
- Substrate quality for the deacetylase activity [3]: not substrates
- Deacetylase Specific Activity [3]: <0.025 ± 0.012 nmol/min/mg
- Concentration that completely inhibits the amidase activity [11]: over 1 mM
- Inhibition of the amidase activity [11]: effective inhibitor
- Relative Rate (amidase reaction) [12]: 0.0043
- Amidase Specific Activity ([12]; pH 7.4): 0.3 ± 0.1 nmol/min/mg

Compound: N[C@H]1C(O)O[C@H](CO)[C@@H](O)[C@@H]1O (stereo partly shown) [glucosamine]
- MSH found in cells [2]: No significant MSH

Compound: N[C@@H](CCC(=O)N[C@@H](CS)C(=O)NCC(=O)O)C(=O)O [glutathione]
- Inhibition of the deacetylase activity [10]: lack of inhibition
- Inhibition of the amidase activity [11]: lack of inhibition

Compound: O[C@H]1[C@H](O)[C@@H](O)[C@H](O)[C@@H](O)[C@H]1O [inositol]
- MSH found in cells [2]: No significant MSH

Compound: superoxide
- Killing by superoxide [13]: intermediate level of killing
- Killed by superoxide [14]: > 90%
- Killing by superoxide [15]: no significant killing
